Measurements published in PMC4019635 (PLoS ONE, 2014).
pEC50, pIC50: −log10 of the molar value.

Legend:
RDLbdI/V = RDLbdI/V (Drosophila melanogaster, UniProt P25123, I283V); test: cell-based
RDLbdI/VA^301S = RDLbdI/VA^301S (Drosophila melanogaster, UniProt P25123, A301S/I283V); test: cell-based
Sequence of RDLbdI/VA^301S (P25123 45-606 I283V/A301S): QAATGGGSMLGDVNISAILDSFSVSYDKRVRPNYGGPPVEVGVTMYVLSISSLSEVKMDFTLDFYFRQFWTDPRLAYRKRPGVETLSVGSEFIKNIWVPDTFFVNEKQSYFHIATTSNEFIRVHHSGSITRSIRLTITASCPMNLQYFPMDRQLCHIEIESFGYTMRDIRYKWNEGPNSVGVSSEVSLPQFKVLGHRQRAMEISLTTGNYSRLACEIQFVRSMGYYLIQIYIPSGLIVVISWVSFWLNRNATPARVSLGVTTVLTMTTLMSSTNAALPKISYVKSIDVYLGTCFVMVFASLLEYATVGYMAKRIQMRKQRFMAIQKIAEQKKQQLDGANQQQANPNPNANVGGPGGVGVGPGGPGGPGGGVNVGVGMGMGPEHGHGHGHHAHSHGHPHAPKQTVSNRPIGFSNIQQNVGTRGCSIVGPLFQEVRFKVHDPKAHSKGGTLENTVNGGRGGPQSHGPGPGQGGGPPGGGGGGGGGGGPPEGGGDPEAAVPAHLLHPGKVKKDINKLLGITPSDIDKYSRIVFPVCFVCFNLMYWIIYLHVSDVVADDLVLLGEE

Sequence of RDLbdI/V (P25123 45-606 I283V): as the sequence (P25123 45-606 I283V/A301S) above, with S257A counted along it

Row | SMILES | pEC50 (RDLbdI/V) | pIC50 (RDLbdI/V) | pIC50 (RDLbdI/VA^301S)
1 | NC/C=C/C(=O)O [TACA, trans-4-aminocrotonic acid] | 3.58 | – | –
2 | NCCC(=O)O [β-alanine] | 2.51 | – | –
3 | CC[C@H](C)[C@H]1O[C@]2(CC[C@@H]1C)C[C@@H]1C[C@@H](C/C=C(\C)[C@@H](O[C@H]3C[C@H](OC)[C@@H](O[C@H]4C[C@H](OC)[C@@H](O)[C@H](C)O4)[C@H](C)O3)[C@@H](C)/C=C/C=C3\CO[C@@H]4[C@H](O)C(C)=C[C@@H](C(=O)O1)[C@]34O)O2 [IVM, ivermectin] | – | 6.33 | 5.92
4 | NCc1cc(=O)[nH]o1 [muscimol] | 4.02 | – | –
